Counter-ions that a name gives are not always drawn.
target: CRBN-DDB1 (Homo sapiens (Human), UniProt Q96SW2); assay: CRBN-DDB1 fluorescence polarization (FP) binding assay; settings: displacement of Thalidomide-Alexa Fluor or Pomalidomide-fluorescein probe
Procedure: Measuring compound ligand binding to CRBN-DDB1 was carried out using an established sensitive and quantitative in vitro fluorescence polarization (FP) based binding assay. […] Compounds were dispensed from serially diluted DMSO stock into black 384-well compatible fluorescence polarization plates using an Echo acoustic dispenser. Compound binding to CRBN-DDB1 was measured by displacement of either a (−)-Thalidomide-Alexa Fluor® or Pomalidomide-fluorescein conjugated probe dye. […] Matching control wells excluding CRBN-DDB1 were used to correct for background fluorescence. Plates were read on an Envision plate reader with appropriate FP filter sets. The corrected S (perpendicular) and P (parallel) values were used to calculate fluorescence polarization (FP) with the following equation: FP=1000*(S−G*P)/(S+G*P).

CRBN-DDB1, sequence (Q96SW2 whole entry): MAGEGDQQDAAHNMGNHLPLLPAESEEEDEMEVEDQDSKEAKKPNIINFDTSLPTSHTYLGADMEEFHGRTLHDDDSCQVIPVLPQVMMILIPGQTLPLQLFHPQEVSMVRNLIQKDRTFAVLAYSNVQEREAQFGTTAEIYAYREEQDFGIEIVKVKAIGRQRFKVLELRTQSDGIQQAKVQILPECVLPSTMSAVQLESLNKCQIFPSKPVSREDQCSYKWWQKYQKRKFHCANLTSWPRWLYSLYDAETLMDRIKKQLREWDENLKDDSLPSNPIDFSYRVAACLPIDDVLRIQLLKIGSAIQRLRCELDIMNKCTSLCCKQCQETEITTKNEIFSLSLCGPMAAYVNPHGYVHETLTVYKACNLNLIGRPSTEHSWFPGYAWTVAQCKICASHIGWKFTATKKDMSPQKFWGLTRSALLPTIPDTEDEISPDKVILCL
CRBN-DDB1, sequence (Q16531 whole entry partner): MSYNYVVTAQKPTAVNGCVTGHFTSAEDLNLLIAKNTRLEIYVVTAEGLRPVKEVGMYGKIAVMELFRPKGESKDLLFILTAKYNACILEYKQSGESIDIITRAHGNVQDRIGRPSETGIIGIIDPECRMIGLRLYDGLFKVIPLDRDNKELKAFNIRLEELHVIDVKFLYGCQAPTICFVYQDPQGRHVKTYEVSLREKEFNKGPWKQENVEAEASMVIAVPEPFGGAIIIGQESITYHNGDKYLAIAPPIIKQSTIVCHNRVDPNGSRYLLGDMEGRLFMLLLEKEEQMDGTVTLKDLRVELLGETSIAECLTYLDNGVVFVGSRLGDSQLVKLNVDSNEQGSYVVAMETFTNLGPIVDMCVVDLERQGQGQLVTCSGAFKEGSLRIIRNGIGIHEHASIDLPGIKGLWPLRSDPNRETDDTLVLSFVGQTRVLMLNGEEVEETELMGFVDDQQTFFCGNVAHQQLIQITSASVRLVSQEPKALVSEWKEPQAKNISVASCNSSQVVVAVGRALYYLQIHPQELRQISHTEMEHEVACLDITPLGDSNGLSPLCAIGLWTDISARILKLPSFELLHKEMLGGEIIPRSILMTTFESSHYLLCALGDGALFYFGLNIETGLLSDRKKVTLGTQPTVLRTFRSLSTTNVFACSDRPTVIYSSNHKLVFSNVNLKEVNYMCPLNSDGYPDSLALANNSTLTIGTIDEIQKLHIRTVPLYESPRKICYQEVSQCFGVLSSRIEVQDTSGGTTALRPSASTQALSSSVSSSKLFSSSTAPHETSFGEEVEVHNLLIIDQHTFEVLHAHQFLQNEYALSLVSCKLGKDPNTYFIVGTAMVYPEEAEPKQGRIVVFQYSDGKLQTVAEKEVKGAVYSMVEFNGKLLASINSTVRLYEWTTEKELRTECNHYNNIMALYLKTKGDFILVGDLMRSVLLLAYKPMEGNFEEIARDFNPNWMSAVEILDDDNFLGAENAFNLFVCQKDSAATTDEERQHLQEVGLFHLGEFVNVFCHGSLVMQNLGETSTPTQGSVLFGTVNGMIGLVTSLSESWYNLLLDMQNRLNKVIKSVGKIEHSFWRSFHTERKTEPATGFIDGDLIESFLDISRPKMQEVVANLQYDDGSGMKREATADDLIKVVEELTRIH

Compound | Kd [µM]
O=C1NC(=O)C2(c3ccccc3)CC12 (centres unmarked) [Compound 1, 1-phenyl-3-azabicyclo[3.1.0]hexane-2,4-dione] | > 100
O=C1NC(=O)C2(c3ccccc3)CC1C2 [Compound 2, 1-Phenyl-3-azabicyclo[3.1.1]heptane-2,4-dione] | > 30
O=C1NC(=O)C2(c3ccc([N+](=O)[O-])cc3)CC12 (centres unmarked) [Compound 3, 1-(4-Nitrophenyl)-3-azabicyclo[3.1.0]hexane-2,4-dione] | > 100
Nc1ccc(C23CC2C(=O)NC3=O)cc1 (centres unmarked) [Compound 4, 1-(4-Aminophenyl)-3-azabicyclo[3.1.0]hexane-2,4-dione] | > 30
CN(C)CC(=O)Nc1ccc(C23CC2C(=O)NC3=O)cc1 (centres unmarked) [Compound 5, 2-(dimethylamino)-N-(4-(2,4-dioxo-3-azabicyclo[3.1.0]hexan-1-yl)phenyl)acetamide] | > 100
CC(=O)Nc1ccc(C23CC2C(=O)NC3=O)cc1 (centres unmarked) [Compound 6, N-(4-(2,4-dioxo-3-azabicyclo[3.1.0]hexan-1-yl)phenyl)acetamide] | > 100
CS(=O)(=O)Nc1ccc(C23CC2C(=O)NC3=O)cc1 (centres unmarked) [Compound 7, N-(4-(2,4-dioxo-3-azabicyclo[3.1.0]hexan-1-yl)phenyl)methanesulfonamide] | > 100
CC1(c2ccccc2)CCC(=O)NC1=O (centres unmarked) [Compound 8, 3-Methyl-3-phenylpiperidine-2,6-dione] | > 30
CC1(c2ccc(N)cc2)CCC(=O)NC1=O (centres unmarked) [Compound 10, 3-(4-Aminophenyl)-3-methylpiperidine-2,6-dione] | > 30
CC1(c2ccccc2N)CCC(=O)NC1=O (centres unmarked) [Compound 11, 3-(2-aminophenyl)-3-methylpiperidine-2,6-dione] | > 30
Cn1c(CC2CCC(=O)NC2=O)nc2ccccc21 (centres unmarked) [Compound 12] | 50 to 100
Cn1nc(CC2CCC(=O)NC2=O)c2ccccc21 (centres unmarked) [Compound 13, 3-((1-methyl-1H-indazol-3-yl)methyl)piperidine-2,6-dione] | > 100
O=C1CCC(C(=O)Nc2ccccc2)C(=O)N1 (centres unmarked) [Compound 14] | 50 to 100
COc1ccccc1NC(=O)C1CCC(=O)NC1=O (centres unmarked) [Compound 15] | 10 to 50
O=C1CCC(C(=O)Nc2cccnc2)C(=O)N1 (centres unmarked) [Compound 16] | > 100
O=C1CCC(C(=O)Nc2ccccn2)C(=O)N1 (centres unmarked) [Compound 17] | > 100
O=C1CCC(C(=O)Nc2ccccc2F)C(=O)N1 (centres unmarked) [Compound 18] | > 100
COc1ccccc1N(C)C(=O)C1CCC(=O)NC1=O (centres unmarked) [Compound 19] | > 100
CN(C(=O)C1CCC(=O)NC1=O)c1ccccn1 (centres unmarked) [Compound 20] | > 100
CN(C(=O)C1CCC(=O)NC1=O)c1ccccc1F (centres unmarked) [Compound 21] | 50 to 100
CN(C(=O)C1CCC(=O)NC1=O)c1ccccc1 (centres unmarked) [Compound 22] | > 100
O=C1CCC(CC(=O)Nc2ccccc2F)C(=O)N1 (centres unmarked) [Compound 23, 2-(2,6-Dioxo-piperidin-3-yl)-N-(2-fluoro-phenyl)-acetamide] | 50 to 100
O=C1CCC(Cc2cn(-c3ccccc3)nn2)C(=O)N1 (centres unmarked) [Compound 24, 3-(1-Phenyl-1H-[1,2,3]triazol-4-ylmethyl)-piperidine-2,6-dione] | 10 to 50
Cn1cc(CC2CCC(=O)NC2=O)nn1 (centres unmarked) [Compound 25, 3-(1-Methyl-1H-[1,2,3]triazol-4-ylmethyl)-piperidine-2,6-dione] | 50 to 100

Compound | Kd [µM]
Cn1cc(C2CCC(=O)NC2=O)nn1 (centres unmarked) [Compound 26, 3-(1-Methyl-1H-[1,2,3]triazol-4-yl)-piperidine-2,6-dione] | 50 to 100
O=C1CCC(c2cn(-c3ccccc3)nn2)C(=O)N1 (centres unmarked) [Compound 27, 3-(1-Phenyl-1H-[1,2,3]triazol-4-yl)-piperidine-2,6-dione] | 10 to 50
O=C1CCC(c2ncc3ccccn23)C(=O)N1 (centres unmarked) [Compound 28, 3-Imidazo[1,5-a]pyridin-3-yl-piperidine-2,6-dione] | < 10
Cn1cc(C2CCC(=O)NC2=O)c2ccccc21 (centres unmarked) [Compound 29, 3-(1-Methyl-1H-indol-3-yl)-piperidine-2,6-dione] | < 10
Cn1nc(C2CCC(=O)NC2=O)cc1-c1ccccc1 (centres unmarked) [Compound 30, 3-(1-methyl-5-phenyl-1H-pyrazol-3-yl)-piperidine-2,6-dione] | < 10
Cn1nc(-c2ccccc2)cc1C1CCC(=O)NC1=O (centres unmarked) [Compound 31, 3-(1-methyl-3-phenyl-1H-pyrazol-5-yl)piperidine-2,6-dione] | 50 to 100
Cc1ccccc1C1CCC(=O)NC1=O (centres unmarked) [Compound 32, 3-(o-tolyl)piperidine-2,6-dione] | 10 to 50
Cn1ccc(C2CCC(=O)NC2=O)n1 (centres unmarked) [Compound 33, 3-(1-methyl-1H-pyrazol-3-yl)piperidine-2,6-dione] | 10 to 50
COc1cccc(C2CCC(=O)NC2=O)n1 (centres unmarked) [Compound 34, 3-(6-methoxypyridin-2-yl)piperidine-2,6-dione] | 10 to 50
Cn1ccc2ccc(C3CCC(=O)NC3=O)nc21 (centres unmarked) [Compound 35, 3-(1-Methyl-1H-pyrrolo[2,3-b]pyridin-6-yl)-piperidine-2,6-dione] | 10 to 50
Cn1cnc2c(C3CCC(=O)NC3=O)cccc21 (centres unmarked) [Compound 36, 3-(1-methyl-1H-benzo[d]imidazol-4-yl)piperidine-2,6-dione] | 10 to 50
Cn1nc(C2CCC(=O)NC2=O)c2ccccc21 (centres unmarked) [Compound 37, 3-(1-Methyl-1H-indazol-3-yl)-piperidine-2,6-dione] | < 10
Cn1nc([C@@H]2CCC(=O)NC2=O)c2ccccc21 [Compound 38] | < 10
Cn1nc([C@H]2CCC(=O)NC2=O)c2ccccc21 [Compound 39] | 10 to 50
Cn1c(=O)c(C2CCC(=O)NC2=O)cc2ccccc21 (centres unmarked) [Compound 40, 3-(1-Methyl-2-oxo-1,2-dihydro-quinolin-3-yl)-piperidine-2,6-dione] | < 10
CN1Cc2ccc(C3CCC(=O)NC3=O)cc2C1=O (centres unmarked) [Compound 41, 3-(2-Methyl-3-oxo-2,3-dihydro-1H-isoindol-5-yl)-piperidine-2,6-dione] | 10 to 50
CC(C)(C)OC(=O)N1Cc2cccc(C3CCC(=O)NC3=O)c2C1 (centres unmarked) [Compound 42, 4-(2,6-dioxo-piperidin-3-yl)-1,3-dihydro-isoindole-2-carboxylic acid tert-butyl ester] | 10 to 50
CC(C)(C)OC(=O)N1CCN(C(=O)CC2CCC(=O)NC2=O)CC1 (centres unmarked) [Compound 44, 4-[2-(2,6-Dioxo-piperidin-3-yl)-acetyl]-piperazine-1-carboxylic acid tert-butyl ester] | 50 to 100
O=C1CCC(CC(=O)N2CCNCC2)C(=O)N1 (centres unmarked) [Compound 45, 3-(2-Oxo-2-piperazin-1-yl-ethyl)-piperidine-2,6-dione hydrochloride Salt] | 50 to 100
Cc1nc(C2CCC(=O)NC2=O)cn1-c1ccccc1 (centres unmarked) [Compound 46, 3-(2-Methyl-1-phenyl-1H-imidazol-4-yl)-piperidine-2,6-dione] | 10 to 50
Cn1nc(C2(C)CCC(=O)NC2=O)c2ccccc21 (centres unmarked) [Compound 47, 3-Methyl-3-(1-methyl-1H-indazol-3-yl)-piperidine-2,6-dione] | 10 to 50
Cc1nc2cc(C3CCC(=O)NC3=O)ccc2s1 (centres unmarked) [Compound 48, 3-(2-Methyl-benzothiazol-5-yl)-piperidine-2,6-dione] | < 10
Cn1c(=O)oc2ccc(C3CCC(=O)NC3=O)cc21 (centres unmarked) [Compound 49, 3-(3-Methyl-2-oxo-2,3-dihydro-benzooxazol-5-yl)-piperidine-2,6-dione] | 10 to 50

Source: patent US10849982B2, “C3-carbon linked glutarimide degronimers for target protein degradation” (C4 Therapeutics, Inc., priority 2016, dated 2020)
